Source: ChEMBL document CHEMBL1158321, “In vitro anti-HIV activity of biflavonoids isolated from Rhus succedanea and Garcinia multiflora” (J Nat Prod, 1997)

Experiments:
[1] = molecular target: Human immunodeficiency virus type 1 reverse transcriptase (Human immunodeficiency virus 1) (UniProt Q72547); test: Inhibition of HIV1 recombinant reverse transcriptase p66/p51 expressed in Escherichia coli at 200 ug/mL
[2] = molecular target: Human immunodeficiency virus type 1 reverse transcriptase (Human immunodeficiency virus 1) (UniProt Q72547); test: (§1) Inhibition of HIV1 recombinant reverse transcriptase p66/p51 expressed in Escherichia coli; design: concentration or dose not given beside the values; settings: concentration not given here
[3] = molecular target: Human immunodeficiency virus type 1 reverse transcriptase (Human immunodeficiency virus 1, UniProt Q72547); test: as §1
[4] = system: Human immunodeficiency virus 1; test: Antiviral activity against HIV1 LAV-1 in PHA-stimulated human PBMC after 6 days; type: functional, organism-based; settings: Human immunodeficiency virus 1, LAV-1, 144 h
PBMC = test: Cytotoxicity against uninfected PHA-stimulated human PBMC assessed as thymidine incorporation after 24 hrs […]; type: cell-based
[5] = Selectivity index, ratio of IC50 for human PBMC to EC50 for HIV1 LAV-1

Row | SMILES | inhibition [1] | inhibition [2] | IC50 [3] | EC50 [4] | IC50 (PBMC) | Selectivity Index [5]
1 | O=C1C[C@@H](c2ccc(O)cc2)Oc2c1c(O)cc(O[C@@H]1O[C@H](CO)[C@@H](O)[C@H](O)[C@H]1O)c2[C@H]1C(=O)c2c(O)cc(O)cc2O[C@@H]1c1ccc(O)cc1 | 1.5% |  |  |  |  | 
2 | O=C1c2c(O)cc(O)cc2O[C@@H](c2ccc(O)cc2)[C@@H]1c1c(O)cc(O)c2c(=O)cc(-c3ccc(O)cc3)oc12 | 45.3% | 30% |  |  |  | 
3 | O=C1C[C@@H](c2ccc(O)cc2)Oc2cc(O)cc(O)c21 | 34.9% | 30% |  |  |  | 
4 | O=C1C[C@@H](c2ccc(O)c(O)c2)Oc2c1c(O)cc(O)c2[C@H]1C(=O)c2c(O)cc(O)cc2O[C@@H]1c1ccc(O)cc1 | 96% |  | 170 µM |  |  | 
5 | O=C1C[C@@H](c2ccc(O)cc2)Oc2c1c(O)cc(O)c2[C@H]1C(=O)c2c(O)cc(O)cc2O[C@@H]1c1ccc(O)cc1 | 86% |  | 236 µM | 38 µM | 88 µM | 2.3
6 | Cc1ccc([C@@H]2CC(=O)c3c(cc(O)c(-c4c(O)cc(O)c5c4O[C@H](c4ccc(O)cc4)CC5=O)c3O)O2)cc1 | 14.1% | < 30% |  |  |  | 
7 | COc1ccc([C@@H]2CC(=O)c3c(OC)cc(OC)c([C@H]4C(=O)c5c(OC)cc(OC)cc5O[C@@H]4c4ccc(OC)cc4)c3O2)cc1 | 0% |  |  |  |  | 
8 | O=c1cc(-c2ccc(Oc3c(O)cc4oc(-c5ccc(O)cc5)cc(=O)c4c3O)cc2)oc2cc(O)cc(O)c12 [HINOKIFLAVONE] | 89.9% |  | 62 µM | 4.1 µM | 9 µM | 2.2
9 | O=C1c2c(O)cc(O)cc2O[C@H](c2ccc(O)cc2)[C@H]1c1c(O)cc(O)c2c(=O)cc(-c3ccc(O)c(O)c3)oc12 [MORELLOFLAVONE] | 99.2% |  | 116 µM | 6.9 µM | 82 µM | 12
10 | COc1ccc([C@@H]2Oc3cc(OC)cc(OC)c3C(=O)[C@H]2c2c(OC)cc(OC)c3c(=O)cc(-c4ccc(OC)c(OC)c4)oc23)cc1 | 0% | < 30% |  |  |  | 
11 | O=c1cc(-c2ccc(O)c(-c3c(O)cc(O)c4c(=O)cc(-c5ccc(O)cc5)oc34)c2)oc2cc(O)cc(O)c12 [AMENTOFLAVONE] | 97.3% |  | 119 µM | 94 µM | 35 µM | <1
12 | O=c1cc(-c2ccc(O)c(-c3c(O)cc4oc(-c5ccc(O)cc5)cc(=O)c4c3O)c2)oc2cc(O)cc(O)c12 [ROBUSTAFLAVONE] | 91.4% |  | 65 µM | > 100 µM | 77 µM | <1
13 | Cc1cn([C@H]2C[C@H](N=[N+]=[N-])[C@@H](CO)O2)c(=O)[nH]c1=O [ZIDOVUDINE] |  |  |  |  | > 100 µM | >10
14 | COc1ccc(-c2cc(=O)c3c(OC)cc(OC)c([C@@H]4C(=O)c5c(OC)cc(OC)cc5O[C@H]4c4ccc(OC)cc4)c3o2)cc1 | 0% | < 30% |  |  |  | 
15 | O=C1C[C@@H](c2ccc(O)cc2)Oc2cc(O)c(-c3c(O)cc4c(c3O)C(=O)C[C@@H](c3ccc(O)cc3)O4)c(O)c21 | 22.1% | < 30% |  |  |  | 
16 | O=c1cc(-c2ccc(O)cc2)oc2cc(O)cc(O)c12 [APIGENIN] | 72% |  | 443 µM |  |  | 
